# Results published in PubChem BioAssay AID1996.
# Settings: buffer; pH 7.4; 200.0 µM
row,SMILES,solubility kinetic
1,O=C(COC(=O)/C=C/c1cccc(Br)c1)NC1CCCC1,4.1 µg/mL
2,COc1ccc(Nc2ncnc3ccc(Br)cc23)c(OC)c1,7.3 µg/mL
3,NC(=O)NC(=O)COC(=O)c1sc2ccccc2c1Cl,1.2 µg/mL
4,Oc1c(C(c2ccccn2)N2CCOCC2)ccc2cccnc12 (stereo not drawn),1.7 µg/mL
5,CCc1nc2oc3ccc(C)cc3c(=O)c2cc1C(=O)OC,< 0.6 µg/mL
6,O=S(=O)(c1ccccc1)N1CC=C(c2ccccc2)CC1,1.1 µg/mL
7,CCCOc1ccc(C2NC(=O)CCC2[N+](=O)[O-])cc1 (stereo not drawn),> 41.7 µg/mL
8,Cc1ccc(C(=O)NCCCNc2ccccc2[N+](=O)[O-])cc1,3.4 µg/mL
9,CCOc1ccccc1NC(=O)NC1CCCc2ccccc21 (stereo not drawn),0.5 µg/mL
10,O=C(c1cccc(S(=O)(=O)NCc2ccccc2)c1)N1CCN(c2ccccc2)CC1,2.4 µg/mL
11,CC(NC(=O)c1cc2cc(Cl)ccc2oc1=N)c1ccccc1 (stereo not drawn),4.2 µg/mL
12,Cc1ccc(NC(=O)CN2CCN(Cc3ccccc3)CC2)cc1Cl,7.7 µg/mL
13,Cc1ccc(NP(=O)(c2ccccc2)c2nc3ccccc3s2)cc1 (stereo not drawn),2.2 µg/mL
14,O=C(O)CCNC(=O)/C(=C/c1ccco1)NC(=O)c1ccco1,> 47.7 µg/mL
15,Clc1ccccc1Nc1nc(-c2ccncc2)nc2ccccc12,0.8 µg/mL
16,O=C(c1ccc(Cl)c([N+](=O)[O-])c1)N1CCCc2ccccc21,23.7 µg/mL
17,O=C(NCC(c1ccco1)N1CCOCC1)c1ccc([N+](=O)[O-])cc1 (stereo not drawn),> 51.8 µg/mL
18,CN(C)c1cccc2c(C#N)ccc(N(C)C)c12,< 0.2 µg/mL
19,S=C(NCCCN1CCOCC1)N1CCOCC1,> 41 µg/mL
20,Cc1cccnc1NC(=O)CCCc1c[nH]c2ccccc12,36.8 µg/mL

row,SMILES,solubility kinetic
1,COC(=O)c1cccc(NC(=S)Nc2ccccc2Cl)c1,41.4 µg/mL
2,CN(C)S(=O)(=O)c1ccc(C(=O)OCC(=O)NC(=O)NC2CCCC2)cc1,7.9 µg/mL
3,COc1ccc(C(C)NC(=O)CC23CC4CC(CC(C4)C2)C3)cc1 (stereo not drawn),19.7 µg/mL
4,O=C(O)C1CCCNC1 (stereo not drawn),0.4 µg/mL
5,O=C(NCCNC(=O)c1ccc(Cl)cc1Cl)c1cnccn1,37 µg/mL
6,CC1(C)Oc2ccc3ccc(=O)oc3c2/C(=N/O)C1=O,> 41 µg/mL
7,CN1C2CCC1CC(NC(=O)CSCc1ccc(Cl)cc1Cl)C2 (stereo not drawn),> 56 µg/mL
8,Cc1ccccc1OCC1Cn2c(nc3c2c(=O)n(C)c(=O)n3C)O1 (stereo not drawn),> 51.4 µg/mL
9,Cc1c(C(=O)O)sc2nc(/C=C/c3cccc(F)c3)[nH]c(=O)c12,41.3 µg/mL
10,CCN1CCN(CCC(=O)Nc2cccc(C)c2)CC1.Cl,46.4 µg/mL
11,CCC(=O)Nc1ccc(NC(=O)c2cccc3ccccc23)cc1,< 0.3 µg/mL
12,COc1cc2ccccc2cc1C(=O)N1CCCCC1,> 40.4 µg/mL
13,COc1ccc(/C=N/N2CCOCC2)cc1Cn1cc([N+](=O)[O-])cn1,> 51.8 µg/mL
14,O=C1CSC(c2ccccc2)N1Cc1ccccn1 (stereo not drawn),> 40.6 µg/mL
15,O=C(Nc1ccccc1C(F)(F)F)c1ccccn1,6.7 µg/mL
16,Cc1cc(NC(=O)c2cccs2)ncc1NC(=O)C(C)C,> 45.5 µg/mL
17,CCc1ccc(NS(=O)(=O)c2ccc3[nH]c(=O)[nH]c3c2)cc1,5.5 µg/mL
18,COc1ccccc1NC(=O)COC(=O)CCC1CCCC1,42.1 µg/mL
19,CNc1c(NC(=O)C2CCC(C)CC2)c(=O)oc2ccccc12 (stereo not drawn),1.8 µg/mL
20,CN(C(=O)CN1CCN(c2ccc([N+](=O)[O-])cn2)CC1)c1ccccc1,> 53.3 µg/mL

row,SMILES,solubility kinetic
1,CCN(CC)CCOC(=O)C(c1ccccc1)c1ccccc1.Cl,> 52.2 µg/mL
2,CC(C)c1ccc(N=C(N)N=C(N)N)cc1.Cl,> 38.4 µg/mL
3,CC(C(=O)Nc1ccc(C#N)cc1)N(C)CC(=O)Nc1cccc(F)c1 (stereo not drawn),5.9 µg/mL
4,Cc1cc(C)cc(OCC(=O)O/N=C(\N)Cc2ccc([N+](=O)[O-])cc2)c1,20.4 µg/mL
5,O=C(O)CC(CC(=O)N1CCN(C(=O)c2ccco2)CC1)c1ccccc1 (stereo not drawn),> 55.6 µg/mL
6,NC(=O)c1oc2ccccc2c1NC(=O)c1ccc([N+](=O)[O-])o1,1.8 µg/mL
7,O=C(O)CCCC(=O)Nc1ccccc1Oc1ccccc1,> 44.9 µg/mL
8,CCCCC(CC)C(=O)Nc1ncc([N+](=O)[O-])s1 (stereo not drawn),> 40.7 µg/mL
9,CN(C)[C@@H]1C(=O)C(C(N)=O)=C(O)[C@@]2(O)C(=O)C3=C(O)c4c(O)cccc4[C@@](C)(O)C3[C@H](O)C12.Cl (stereo partly drawn),70.2 µg/mL
10,Cc1ccc(NC(=O)C(C)C(=O)Nc2ccc(C)cc2)cc1,1.5 µg/mL
11,O=C(COC(=O)C12CC3CC(CC(O)(C3)C1)C2)Nc1ccc(Cl)c(S(=O)(=O)N2CCOCC2)c1,> 77 µg/mL
12,O=S(=O)(Cc1ccccc1)Nc1ccccc1,> 37.1 µg/mL
13,CCc1ccc(-c2cnc3nc[nH]c(=O)c3n2)cc1,> 37.8 µg/mL
14,CCOC(=O)C1CCCN(S(=O)(=O)c2ccc3ccccc3c2)C1 (stereo not drawn),13 µg/mL
15,O=C(CC(=O)Nc1cccnc1)Nc1cccnc1,> 38.4 µg/mL
16,CCNC(=O)CSc1nc2sccc2c(=O)n1-c1ccccc1,> 51.8 µg/mL
17,Oc1ccc(N2CCN(CC(O)c3ccccc3)CC2)cc1 (stereo not drawn),> 44.8 µg/mL
18,O=C(/C=C/c1ccc(Cl)c(Cl)c1)Nc1cccnc1,0.6 µg/mL
